Results from patent US20210395256A1, “TYROSINE KINASE INHIBITORS, COMPOSITIONS AND METHODS THERE OF” (Betta Pharmaceuticals Co., Ltd., priority 2018, published 2021).

Legend:
Assay type in all cases: in vitro ADME
[1] = Liver microsomes metabolic stability assay, human; details: human liver microsomes 0.5 mg/mL, 37° C.; for half-life at 2 μM: read-out: t1/2 Human
Procedure, shortened: (§1)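 Pooled human, male rat or male mouse liver microsomes (0.5 mg/mL final) incubated at 37° C with 2 μM compound, with or without 1 mM NADPH. Samples at 0-60 min quenched in cold acetonitrile and analyzed by LC-MS/MS in duplicate. t1/2 derived from ln(% remaining) vs time slope, converted to CLint (μL/min/mg).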

[2] = Liver microsomes metabolic stability assay, rat; details: male, rat liver microsomes 0.5 mg/mL, 37° C.; for half-life at 2 μM: read-out: t1/2 Rat
Procedure, shortened: as §1

[3] = Liver microsomes metabolic stability assay, mouse; details: male, mouse liver microsomes 0.5 mg/mL, 37° C.; for half-life at 2 μM: read-out: t1/2 Mouse
Procedure, shortened: as §1

[4] = Plasma protein binding (equilibrium dialysis), mouse; details: pH 7.4, 6 hours dialysis; for fraction unbound at 6 h, 1 μM: read-out: Mean % Bound Mouse (converted)
Protocol: Example 204 Plasma Protein Binding Measurements
The plasma protein binding was measured as the following procedure.
1) Preparation of 100 mM sodium phosphate and 150 mM NaCl buffer (PBS)
A basic solution was prepared by dissolving 14.2 g/L Na2HPO4 and 8.77 g/L NaCl in deionized water and the solution could be stored at 4° C. for up to 7 days. An acidic solution was prepared by dissolving 12.0 g/L NaH2PO4 and 8.77 g/L NaCl in deionized water and the solution could be stored at 4° C. for up to 7 days. The basic solution was titrated with the acidic solution to pH 7.4 and store at 4° C. for up to 7 days. pH was checked on the day of experiment and was adjusted if outside specification of 7.4±0.1.
Frozen plasma was thawed immediately at room temperature.
The plasma was centrifuged at 3,220 g for 10 minutes to remove clots and supernatant was collected into a fresh tube. The pH of the plasma was checked and recorded.
Note: a). Only use plasma that has been thawed no more than twice since arrival. b). Only use plasma within the range of pH 7 to pH 8.
3) Preparation of working solutions
The working solutions of test compounds and control compound ketoconazole were prepared in DMSO at the concentration of 200 μM. And then 3 μL of working solution was removed to mix with 597 μL of human, rat or mouse plasma to achieve a final concentration of 1 μM (0.5% DMSO). Plasma samples were vortexed thoroughly.
4) Preparation of dialysis membranes
The dialysis membranes were soaked in ultrapure water for 60 minutes to separate strips, then in 20% ethanol for 20 minutes, finally in dialysis buffer for 20 minutes.
5) Procedure for equilibrium dialysis
The dialysis apparatus was assembled according to the manufacturer's instruction. Each cell was filled with 120 μL of plasma sample and dialyzed against equal volume of dialysis buffer (PBS). The assay was performed in duplicate. The dialysis plate was sealed and incubated in an incubator at 37° C. with 5% CO2 at 100 rpm for 6 hours. At the end of incubation, seal was removed and 50 μL of samples from both buffer and plasma chambers were transferred to wells of a 96-well plate.
6) Procedure for sample analysis
50 μL of blank plasma was added to each buffer samples and an equal volume of PBS was supplemented to the collected plasma sample. 300 μL of room temperature quench solution (acetonitrile containing internal standards (1S, 100 nM Alprazolam, 500 nM Labetalol and 2 μM Ketoprofen)) was added to precipitate protein. Samples in plate were vortexed for 5 minutes and centrifuged at 3,220 g for 30 minutes at 4° C. And then 100 μL of the supernatant was transferred to a new 96-well plate with 100 μL or 200 μL water (depends on the LC-MS signal response and peak shape) for LC-MS/MS analysis.
Calculate the percentages of test compound and control compound bound as follows:
% Free=(Peak Area Ratiobuffer chamber/Peak Area Ratioplasma chamber)*100
% Recovery=(Peak Area Ratiobuffer chamber+Peak Area Ratioplasma chamber)/Peak Area Ratio total sample*100
Peak Area Ratiobuffer chamber means the conc for free fraction
Peak Area Ratioplasma chamber means the conc for both free and bound fraction
Peak Area Ratiototal sample means the conc for starting sample before incubation

Cc1nnc(-c2cnn3ccc(N4CCCC4c4cc(F)ccc4F)nc23)[nH]1 (centres unmarked) [Comparative compound A, 5-[2-(2,5-Difluorophenyl)pyrrolidin-1-yl]-3-(5-methyl-1H-1,2,4-triazol-3-yl)pyrazolo[1,5-a]pyrimidine, reference compound]
microsomal CLint at 2 μM [1]: 108 µL/min/mg
half-life at 2 μM [1]: 12.8 min
microsomal CLint at 2 μM [2]: 78.5 µL/min/mg
half-life at 2 μM [2]: 17.7 min
microsomal CLint at 2 μM [3]: 214 µL/min/mg
half-life at 2 μM [3]: 6.47 min
recovery at 6 h, 1 μM [4]: 89.4%
fraction unbound at 6 h, 1 μM [4]: 0.0488

C[C@H](O)c1nnc(-c2cnn3ccc(N4CCC[C@@H]4c4cc(F)ccc4F)nc23)[nH]1 [Compound 4, (S)-1-(5-(5-((R)-2-(2,5-difluorophenyl)pyrrolidin-1-yl)pyrazolo[1,5-a]pyrimidin-3-yl)-4H-1,2,4-triazol-3-yl)ethan-1-ol]
microsomal CLint at 2 μM [1]: 20.4 µL/min/mg
half-life at 2 μM [1]: 67.9 min
microsomal CLint at 2 μM [2]: 29.3 µL/min/mg
half-life at 2 μM [2]: 47.3 min
microsomal CLint at 2 μM [3]: 96.4 µL/min/mg
half-life at 2 μM [3]: 14.4 min
fraction unbound at 6 h, 1 μM [4]: 0.0443

CC(C)(O)c1nnc(-c2cnn3ccc(N4CCC[C@@H]4c4cc(F)ccc4F)nc23)[nH]1 [Compound 7, (R)-2-(5-(5-(2-(2,5-difluorophenyl)pyrrolidin-1-yl)pyrazolo[1,5-a]pyrimidin-3-yl)-4H-1,2,4-triazol-3-yl)propan-2-ol]
microsomal CLint at 2 μM [1]: 11.1 µL/min/mg
half-life at 2 μM [1]: 124 min
microsomal CLint at 2 μM [2]: 25.3 µL/min/mg
half-life at 2 μM [2]: 54.9 min
microsomal CLint at 2 μM [3]: 19.4 µL/min/mg
half-life at 2 μM [3]: 71.5 min
recovery at 6 h, 1 μM [4]: 89.4%
fraction unbound at 6 h, 1 μM [4]: 0.0929

C[C@H](N)c1nnc(-c2cnn3ccc(N4CCC[C@@H]4c4cc(F)ccc4F)nc23)[nH]1 [Compound 11, (S)-1-(5-(5-((R)-2-(2,5-difluorophenyl)pyrrolidin-1-yl)pyrazolo[1,5-a]pyrimidin-3-yl)-4H-1,2,4-triazol-3-yl)ethan-1-amine]
microsomal CLint at 2 μM [1]: 4.27 µL/min/mg
microsomal CLint at 2 μM [2]: 5.23 µL/min/mg
microsomal CLint at 2 μM [3]: 61.9 µL/min/mg
recovery at 6 h, 1 μM [4]: 85.5%
fraction unbound at 6 h, 1 μM [4]: 0.244

OC1(c2nnc(-c3cnn4ccc(N5CCC[C@@H]5c5cc(F)ccc5F)nc34)[nH]2)CCC1 [Compound 23, (R)-1-(5-(5-(2-(2,5-difluorophenyl)pyrrolidin-1-yl)pyrazolo[1,5-a]pyrimidin-3-yl)-4H-1,2,4-triazol-3-yl)cyclobutan-1-ol]
microsomal CLint at 2 μM [1]: 9.36 µL/min/mg
half-life at 2 μM [1]: 148 min
microsomal CLint at 2 μM [2]: 50 µL/min/mg
half-life at 2 μM [2]: 27.7 min
microsomal CLint at 2 μM [3]: 48.6 µL/min/mg
half-life at 2 μM [3]: 28.5 min
fraction unbound at 6 h, 1 μM [4]: 0.0397

CC(C)(O)Cc1nnc(-c2cnn3ccc(N4CCC[C@@H]4c4cc(F)ccc4F)nc23)[nH]1 [Compound 30, (R)-1-(5-(5-(2-(2,5-difluorophenyl)pyrrolidin-1-yl)pyrazolo[1,5-a]pyrimidin-3-yl)-4H-1,2,4-triazol-3-yl)-2-methylpropan-2-ol]
microsomal CLint at 2 μM [1]: 16.8 µL/min/mg
half-life at 2 μM [1]: 82.7 min
microsomal CLint at 2 μM [2]: 69.6 µL/min/mg
half-life at 2 μM [2]: 19.9 min
microsomal CLint at 2 μM [3]: 35.6 µL/min/mg
half-life at 2 μM [3]: 38.9 min
recovery at 6 h, 1 μM [4]: 90%
fraction unbound at 6 h, 1 μM [4]: 0.0887

OC1CC(c2nnc(-c3cnn4ccc(N5CCC[C@@H]5c5cc(F)ccc5F)nc34)[nH]2)C1 (stereo partly drawn) [Compound 31, (R)-3-(5-(5-(2-(2,5-difluorophenyl)pyrrolidin-1-yl)pyrazolo[1,5-a]pyrimidin-3-yl)-4H-1,2,4-triazol-3-yl)cyclobutan-1-ol]
microsomal CLint at 2 μM [1]: 16.4 µL/min/mg
half-life at 2 μM [1]: 84.6 min
microsomal CLint at 2 μM [2]: 69.1 µL/min/mg
half-life at 2 μM [2]: 20.1 min
microsomal CLint at 2 μM [3]: 37 µL/min/mg
half-life at 2 μM [3]: 37.4 min
recovery at 6 h, 1 μM [4]: 94.2%
fraction unbound at 6 h, 1 μM [4]: 0.0998

C[C@@H](CO)c1nnc(-c2cnn3ccc(N4CCC[C@@H]4c4cc(F)ccc4F)nc23)[nH]1 [Compound 39, (R)-2-(5-(5-((R)-2-(2,5-difluorophenyl)pyrrolidin-1-yl)pyrazolo[1,5-a]pyrimidin-3-yl)-4H-1,2,4-triazol-3-yl)propan-1-ol]
microsomal CLint at 2 μM [1]: 17.2 µL/min/mg
half-life at 2 μM [1]: 80.6 min
microsomal CLint at 2 μM [2]: 80.2 µL/min/mg
half-life at 2 μM [2]: 17.3 min
microsomal CLint at 2 μM [3]: 41.4 µL/min/mg
half-life at 2 μM [3]: 33.5 min
recovery at 6 h, 1 μM [4]: 91.3%
fraction unbound at 6 h, 1 μM [4]: 0.0676
